“And” between values parts separate entries of the source, which are not always exact repeats. Equal entries are not always repeated.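 A five-concentration, 48-hour dose response in 96-well plates underlies each endpoint, interpolated linearly between surrounding concentrations. GI50 marks 50% less growth. TGI denotes the concentration required for complete inhibition of growth.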 Some results are limits rather than exact numbers.

Test systems include OVCAR-4 ovarian; NCI-H226 lung; LOX IMVI melanoma; SNB-19 CNS; BT-549 breast; HT29 colon; 786-0 renal; MDA-MB-435; SK-MEL-28 melanoma; CCRF-CEM leukemia.
Common to all, as to experiment: inhibition of tumour cell growth, NCI panel, 48 h

Turning to `COc1cc2c3c(n(CCCNCCN4CCOCC4)c(=O)c2cc1OC)-c1cc2c(cc1C3=O)OCO2`, the TGI was 50 µM and 12.2 µM with OVCAR-4 ovarian; 53.8 µM in the experiment on NCI-H226 lung; 3.34 µM in the experiment with LOX IMVI melanoma; 50 µM and > 55.2 µM with SNB-19 CNS; 16.6 µM and 29.5 µM with BT-549 breast; 50 µM and > 100 µM in the experiment on HT29 colon. The TGI in the experiment with 786-0 renal is 5.23 µM; in the experiment with MDA-MB-435 it was 10.3 µM and 19.2 µM. For the same compound, the GI50 in the experiment on NCI-H226 lung was 15.1 µM; in the experiment on LOX IMVI melanoma it was 1.04 µM; with SNB-19 CNS it was 2.23 µM and 0.77 µM; in the experiment on BT-549 breast, 7.64 µM and 7.01 µM; in the experiment with HT29 colon, 2.2 µM and 1.78 µM; in the experiment with 786-0 renal, 1.97 µM. The GI50 with MDA-MB-435 is 1.93 µM and 4.36 µM.
`COC(=O)c1cc2c(cc1Cl)SC(N(N(C)C)S(=O)(=O)c1ccc(Cl)cc1)=NS2(=O)=O`: the GI50 in the experiment on OVCAR-4 ovarian is 18.1 µM; with NCI-H226 lung it was 19.8 µM; in the experiment with SK-MEL-28 melanoma, 15.9 µM; in the experiment on LOX IMVI melanoma it was 15 µM; with SNB-19 CNS, 17.3 µM; in the experiment with HT29 colon, 16.1 µM. In addition, the GI50 in the experiment on 786-0 renal was 31.3 µM; in the experiment with MDA-MB-435, 16.3 µM; in the experiment on CCRF-CEM leukemia, 14.1 µM. For the same compound, the TGI with OVCAR-4 ovarian turned out to be 54.8 µM; with NCI-H226 lung it was 62 µM; with SK-MEL-28 melanoma it was 29.3 µM; with LOX IMVI melanoma, 28.3 µM; with SNB-19 CNS it was 50.2 µM; with HT29 colon it was 31.9 µM. In addition, the TGI is greater than 100 µM in the experiment on 786-0 renal, 33.3 µM with MDA-MB-435 and 37.1 µM in the experiment on CCRF-CEM leukemia.
Regarding `O=[N+]([O-])c1ccc(O)c2ncccc12`, the TGI in the experiment with NCI-H226 lung is > 100 µM and 18.6 µM; in the experiment with SK-MEL-28 melanoma it was > 100 µM and 24.7 µM; with LOX IMVI melanoma, > 100 µM and 13 µM; in the experiment on SNB-19 CNS it was > 100 µM and 32.6 µM; in the experiment on BT-549 breast it was > 100 µM and 24 µM; in the experiment with HT29 colon, > 100 µM and 18.9 µM. The TGI in the experiment with 786-0 renal is > 100 µM and 11.6 µM; with MDA-MB-435 it was > 100 µM and 15.2 µM; in the experiment on CCRF-CEM leukemia it was greater than 100 µM.
As for `CC(=O)OC1=C2C(CC3C4CC=C5CC(OC(C)=O)CCC5(C)C4CCC23C)C2C(=O)N(Cc3ccccc3)C(=O)C2C1` (configuration not stated), the GI50 is 2.33 µM in the experiment with OVCAR-4 ovarian; 8.16 µM in the experiment with NCI-H226 lung; 28.9 µM in the experiment on SK-MEL-28 melanoma; 9.22 µM in the experiment on SNB-19 CNS; 3.53 µM in the experiment with BT-549 breast; 3.9 µM in the experiment with HT29 colon. Further, the results for the GI50 in the experiment on 786-0 renal, in the experiment with MDA-MB-435 and in the experiment on CCRF-CEM leukemia were 20.5 µM, 14.5 µM and 3.39 µM, respectively. For the same compound, the TGI in the experiment with OVCAR-4 ovarian is 9.27 µM; in the experiment with NCI-H226 lung, greater than 100 µM; with SK-MEL-28 melanoma, greater than 100 µM; in the experiment on SNB-19 CNS, greater than 100 µM; in the experiment on BT-549 breast it was 13.5 µM; in the experiment with HT29 colon it was 24 µM. In addition, the TGI in the experiment on 786-0 renal, in the experiment on MDA-MB-435 and with CCRF-CEM leukemia was greater than 100 µM each time.
Regarding `COc1ccc(-c2nn(-c3cccc(NC(=O)Nc4cccc(C(F)(F)F)c4)c3)cc2-c2ccncc2)cc1Cl`, the GI50 in the experiment with NCI-H226 lung was 2.14 µM; in the experiment on SK-MEL-28 melanoma, 2.57 µM; in the experiment on LOX IMVI melanoma it was 3.02 µM; in the experiment on SNB-19 CNS, 3.85 µM; in the experiment on BT-549 breast, 1.68 µM; in the experiment on HT29 colon, 2.24 µM. In addition, the GI50 in the experiment on 786-0 renal was 2.28 µM; in the experiment with MDA-MB-435, 1.45 µM; in the experiment on CCRF-CEM leukemia, 1.54 µM. The TGI was 9.43 µM with NCI-H226 lung; 22.6 µM in the experiment with SK-MEL-28 melanoma; greater than 100 µM with LOX IMVI melanoma; greater than 100 µM in the experiment on SNB-19 CNS; 4.55 µM with BT-549 breast; 49.1 µM in the experiment on HT29 colon. In addition, the TGI worked out at 10.1 µM with 786-0 renal, 4.67 µM in the experiment with MDA-MB-435 and 7.59 µM in the experiment with CCRF-CEM leukemia.
As for `COc1ccc(-c2c(C#N)c(N)nc3c2CCCc2ccc(F)cc2-3)cc1OC`, the GI50 with OVCAR-4 ovarian was 1.28 µM; with NCI-H226 lung it was less than 0.01 µM; in the experiment on SK-MEL-28 melanoma it was 1.03 µM; with LOX IMVI melanoma it was less than 0.0422 µM; in the experiment with SNB-19 CNS, 20.7 µM; with BT-549 breast, 0.556 µM. In addition, the GI50 in the experiment with HT29 colon is 1.07 µM; with 786-0 renal, 0.0964 µM; in the experiment on CCRF-CEM leukemia, less than 0.0105 µM. Besides, the TGI in the experiment with OVCAR-4 ovarian was greater than 29.9 µM; in the experiment with NCI-H226 lung it was greater than 100 µM; in the experiment with SK-MEL-28 melanoma it was greater than 38 µM; in the experiment with LOX IMVI melanoma, 19.6 µM; in the experiment on SNB-19 CNS, greater than 92.1 µM; in the experiment on BT-549 breast, 26.2 µM. In addition, the TGI with HT29 colon was greater than 41.3 µM; in the experiment on 786-0 renal it was 30.3 µM; in the experiment with CCRF-CEM leukemia it was greater than 92.8 µM.
Consider `C=C1C(=O)O[C@H]2[C@H]1CC(=O)/C(C)=C\CC[C@@]1(C)O[C@@H]21`, for which the GI50 is 3.75 mg/L in the experiment on OVCAR-4 ovarian; 4.71 mg/L with NCI-H226 lung; 1.51 mg/L with SK-MEL-28 melanoma; 7.62 mg/L with SNB-19 CNS; 3.41 mg/L in the experiment with BT-549 breast; 1.29 mg/L in the experiment on HT29 colon. In addition, the values for the GI50 in the experiment on 786-0 renal, in the experiment on MDA-MB-435 and in the experiment on CCRF-CEM leukemia were 1.06 mg/L, 2.98 mg/L and 0.443 mg/L, respectively. The TGI in the experiment with OVCAR-4 ovarian stood at 8.12 mg/L; in the experiment with NCI-H226 lung, 9.45 mg/L; in the experiment on SK-MEL-28 melanoma, 6.11 mg/L; in the experiment with SNB-19 CNS, 16.1 mg/L; in the experiment on BT-549 breast, 7 mg/L; in the experiment on HT29 colon, 4.32 mg/L. The TGI stood at 4.51 mg/L with 786-0 renal, 7.14 mg/L in the experiment on MDA-MB-435 and 1.4 mg/L in the experiment on CCRF-CEM leukemia.
`COC(=O)[C@H](Cc1ccccc1)NC(=O)[C@@H](OC)[C@@H]1Cc2cc3cc(OC4CC(OC5CC(O)C(O)C(C)O5)C(O)C(C)O4)c(C)c(O)c3c(O)c2C(=O)[C@H]1OC1CC(OC2CC(OC3CC(C)(O)C(O)C(C)O3)C(O)C(C)O2)C(O)C(C)O1` (some centres not stated): the GI50 with OVCAR-4 ovarian was 0.0277 µM; in the experiment on NCI-H226 lung, 0.018 µM; in the experiment on SK-MEL-28 melanoma, 0.00578 µM; in the experiment on SNB-19 CNS, 0.0173 µM; in the experiment with BT-549 breast, 0.00713 µM; with HT29 colon, 0.0268 µM. The GI50 with 786-0 renal is 0.0188 µM; with MDA-MB-435, 0.0182 µM; in the experiment with CCRF-CEM leukemia, 0.0137 µM. For the same compound, the TGI was greater than 14.3 µM in the experiment with OVCAR-4 ovarian; 0.0741 µM with NCI-H226 lung; 0.0368 µM in the experiment with SK-MEL-28 melanoma; greater than 14.3 µM in the experiment on SNB-19 CNS; 0.0574 µM in the experiment with BT-549 breast; greater than 14.3 µM with HT29 colon. In addition, the TGI with 786-0 renal is greater than 14.3 µM; with MDA-MB-435 it was 0.0642 µM; in the experiment with CCRF-CEM leukemia, greater than 14.3 µM.

Source of the values: PubChem BioAssay (NCI).
